Activity calls are given as the source filed them. The rule behind the calls is not given here.
What was measured:
[1] = Antiproliferative activity against human VAL cells assessed as inhibition of cell growth incubated for 4 hrs by CCK-8 assay; type: functional, cell-based
MM1.S [2] = experiment: Induction of cell cycle arrest in human MM1.S cells assessed as accumulation at S phase at 5000 nM incubated for 48 hrs by propidium iodide staining based flow cytometric analysis (reference value: 21.8%); type: functional
MM1.S [3] = experiment: Induction of apoptosis in human MM1.S cells assessed as assessed as viable cells at 100 nM measured after 48 hrs by annexin V-FITC/PI staining based flow cytometry analysis (Rvb=85.74%); type: functional; conditions: read-out: Activity
MM1.S [4] = experiment: Induction of apoptosis in human MM1.S cells assessed as assessed as late apoptotic cells at 1000 nM measured after 48 hrs by annexin V-FITC/PI staining based flow cytometry analysis (Rvb=2.06%); type: functional
MM1.S [5] = experiment: Induction of cell cycle arrest in human MM1.S cells assessed as p53-dependent accumulation of cells in G2 phase at 100 nM incubated for 48 hrs by propidium iodide staining based flow cytometric analysis (reference value: 18.4%); type: functional
[6] = AUC (0 to infinity) in Sprague-Dawley rat at 10 mg/kg, IG measured upto 8 hrs by LC-MS/MS analysis; type: ADME, organism-based; set-up: dose 10 mg/kg, time < 8 hrs, route ig; conditions: in vivo, po
MM1.S [7] = experiment: Induction of apoptosis in human MM1.S cells assessed as assessed as necrotic cells at 1000 nM measured after 48 hrs by annexin V-FITC/PI staining based flow cytometry analysis (Rvb=7.60%); type: functional
MM1.S [8] = experiment: Induction of apoptosis in human MM1.S cells assessed as assessed as late apoptotic cells at 10000 nM measured after 48 hrs by annexin V-FITC/PI staining based flow cytometry analysis (Rvb=2.06%); type: functional
[9] = Clearance in Sprague-Dawley rat at 1 mg/kg, iv measured upto 8 hrs by LC-MS/MS analysis; type: ADME, organism-based; conditions: in vivo
[10] = Metabolic stability in rat liver microsomes assessed as compound remaining preincubated for 5 mins measured upto 60 mins in presence of NADPH by LC/MS analysis; type: ADME, Microsome; conditions: time < 65 min, read-out: Stability
MM1.S [11] = experiment: Induction of apoptosis in human MM1.S cells assessed as assessed as early apoptotic cells at 1000 nM measured after 48 hrs by annexin V-FITC/PI staining based flow cytometry analysis (Rvb=4.60%); type: functional
NAMALVA = experiment: Antiproliferative activity against human NAMALVA cells assessed as inhibition of cell growth incubated for 4 hrs by CCK-8 assay; type: functional, cell-based
MM1.S [12] = experiment: Induction of cell cycle arrest in human MM1.S cells assessed as accumulation at S phase at 100 nM incubated for 48 hrs by propidium iodide staining based flow cytometric analysis (reference value: 21.8%); type: functional
MM1.S [13] = experiment: Induction of cell cycle arrest in human MM1.S cells assessed as accumulation at G1 phase at 100 nM incubated for 48 hrs by propidium iodide staining based flow cytometric analysis (reference value: 59.8%); type: functional
[14] = Antiproliferative activity against human JB-6 cells assessed as inhibition of cell growth incubated for 4 hrs by CCK-8 assay; type: functional, cell-based; conditions: JB6, 4 h
MM1.S [15] = experiment: Induction of cell cycle arrest in human MM1.S cells assessed as accumulation at G1 phase at 5000 nM incubated for 48 hrs by propidium iodide staining based flow cytometric analysis (reference value: 59.8%); type: functional
YT = experiment: Antiproliferative activity against human YT cells assessed as inhibition of cell growth incubated for 4 hrs by CCK-8 assay; type: functional, cell-based
[16] = Half life in Sprague-Dawley rat at 1 mg/kg, iv measured upto 8 hrs by LC-MS/MS analysis; type: ADME, organism-based; conditions: in vivo
[17] = Antiproliferative activity against human MINO cells assessed as inhibition of cell growth incubated for 4 hrs by CCK-8 assay; type: functional, cell-based
MM1.S [18] = experiment: Induction of apoptosis in human MM1.S cells assessed as assessed as early apoptotic cells at 100 nM measured after 48 hrs by annexin V-FITC/PI staining based flow cytometry analysis (Rvb=4.60%); type: functional
MM1.S [19] = experiment: Induction of cell cycle arrest in human MM1.S cells assessed as accumulation at G1 phase at 10000 nM incubated for 48 hrs by propidium iodide staining based flow cytometric analysis (reference value: 59.8%); type: functional
MM1.S [20] = experiment: Induction of apoptosis in human MM1.S cells assessed as assessed as necrotic cells at 100 nM measured after 48 hrs by annexin V-FITC/PI staining based flow cytometry analysis (Rvb=7.60%); type: functional
[21] = Antiproliferative activity against human Mutu-1 cells assessed as inhibition of cell growth incubated for 4 hrs by CCK-8 assay; type: functional, cell-based; conditions: Mutu-1, 4 h
MM1.S [22] = experiment: Antiproliferative activity against human MM1.S cells assessed as inhibition of cell growth incubated for 4 hrs by CCK-8 assay; type: functional, cell-based
MM1.S [23] = experiment: Induction of apoptosis in human MM1.S cells assessed as assessed as viable cells at 10000 nM measured after 48 hrs by annexin V-FITC/PI staining based flow cytometry analysis (Rvb=85.74%); type: functional; conditions: read-out: Activity
[24] = Metabolic stability in rat plasma assessed as compound remaining measured upto 120 mins by LC/MS analysis; type: ADME, cell-free; conditions: read-out: Stability
MM1.S [25] = experiment: Induction of apoptosis in human MM1.S cells assessed as increase in apoptosis rate at 10 uM measured after 48 hrs by annexin V-FITC/PI staining based flow cytometry analysis (Rvb=6.7%); type: functional
[26] = Antiproliferative activity against human Rael cells assessed as inhibition of cell growth incubated for 4 hrs by CCK-8 assay; type: functional, cell-based
MM1.S [27] = experiment: Induction of cell cycle arrest in human MM1.S cells assessed as accumulation at G1 phase at 1000 nM incubated for 48 hrs by propidium iodide staining based flow cytometric analysis (reference value: 59.8%); type: functional
[28] = target: Exportin-1 (Homo sapiens) (UniProt O14980); experiment: Inhibition of XPO1 in human MM1.S cells at 0.1 to 10 uM incubated for 2 hrs by confocal microscopic analysis; type: cell-based; conditions: dose 0.1-10 µM
Sequence of Exportin-1 (Homo sapiens) (O14980 whole entry): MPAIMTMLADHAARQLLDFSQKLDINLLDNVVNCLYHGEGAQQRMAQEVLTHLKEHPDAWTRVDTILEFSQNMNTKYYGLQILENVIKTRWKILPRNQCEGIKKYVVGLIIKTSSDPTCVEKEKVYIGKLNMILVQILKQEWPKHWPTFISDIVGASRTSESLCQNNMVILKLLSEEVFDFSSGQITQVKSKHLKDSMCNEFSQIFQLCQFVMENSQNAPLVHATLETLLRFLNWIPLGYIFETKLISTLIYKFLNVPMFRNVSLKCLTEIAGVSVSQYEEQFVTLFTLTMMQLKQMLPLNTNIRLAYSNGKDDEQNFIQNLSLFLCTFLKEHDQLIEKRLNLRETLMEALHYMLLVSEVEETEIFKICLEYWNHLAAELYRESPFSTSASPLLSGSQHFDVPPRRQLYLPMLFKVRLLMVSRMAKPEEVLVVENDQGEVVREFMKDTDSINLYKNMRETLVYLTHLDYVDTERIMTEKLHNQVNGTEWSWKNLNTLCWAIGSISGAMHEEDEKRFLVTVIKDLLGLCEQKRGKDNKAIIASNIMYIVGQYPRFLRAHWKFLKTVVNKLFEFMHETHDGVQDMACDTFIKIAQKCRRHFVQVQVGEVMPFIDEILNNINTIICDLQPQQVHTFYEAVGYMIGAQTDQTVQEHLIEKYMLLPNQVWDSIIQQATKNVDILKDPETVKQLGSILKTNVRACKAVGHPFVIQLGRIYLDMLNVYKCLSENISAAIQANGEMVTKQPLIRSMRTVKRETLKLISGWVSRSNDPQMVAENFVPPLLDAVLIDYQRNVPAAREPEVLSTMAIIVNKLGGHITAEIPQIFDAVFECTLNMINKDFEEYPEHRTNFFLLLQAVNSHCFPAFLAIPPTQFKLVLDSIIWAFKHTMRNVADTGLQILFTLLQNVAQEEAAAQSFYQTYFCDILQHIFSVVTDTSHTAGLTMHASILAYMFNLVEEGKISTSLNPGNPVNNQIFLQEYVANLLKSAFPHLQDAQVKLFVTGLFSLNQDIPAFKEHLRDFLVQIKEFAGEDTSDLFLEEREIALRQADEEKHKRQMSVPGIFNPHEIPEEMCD

MM1.S [29] = experiment: Induction of apoptosis in human MM1.S cells assessed as assessed as early apoptotic cells at 10000 nM measured after 48 hrs by annexin V-FITC/PI staining based flow cytometry analysis (Rvb=4.60%); type: functional
[30] = Half life in Sprague-Dawley rat at 10 mg/kg, IG measured upto 8 hrs by LC-MS/MS analysis; type: ADME, organism-based; conditions: in vivo, po
H9 = experiment: Antiproliferative activity against human H9 cells assessed as inhibition of cell growth incubated for 4 hrs by CCK-8 assay; type: functional, cell-based; conditions: H9, 4 h
[31] = AUC (0 to t) in Sprague-Dawley rat at 1 mg/kg, iv measured upto 8 hrs by LC-MS/MS analysis; type: ADME, organism-based; set-up: time < 8 hrs, dose 1 mg/kg, route iv; conditions: in vivo
MM1.S [32] = experiment: Induction of apoptosis in human MM1.S cells assessed as assessed as late apoptotic cells at 100 nM measured after 48 hrs by annexin V-FITC/PI staining based flow cytometry analysis (Rvb=2.06%); type: functional
[33] = Cmax in Sprague-Dawley rat at 1 mg/kg, iv measured upto 8 hrs by LC-MS/MS analysis; type: ADME, organism-based; set-up: dose 1 mg/kg, time < 8 hrs, route iv; conditions: in vivo
MM1.S [34] = experiment: Induction of cell cycle arrest in human MM1.S cells assessed as p53-dependent accumulation of cells in G2 phaseat 10000 nM incubated for 48 hrs by propidium iodide staining based flow cytometric analysis (reference value: 18.4%); type: functional

## CS(=O)(=O)Nc1ccc(/C(=C\n2cnc(-c3cc(C(F)(F)F)cc(C(F)(F)F)c3)n2)C(N)=O)cc1
[1]
  IC50: 189 nM
MM1.S [2]
  Activity: 10.2%
MM1.S [3]
  viability at 0.1 µM: 75.4%
MM1.S [4]
  Activity: 20.49%
MM1.S [5]
  Activity: 21.3%
[6]
  AUC(0-inf): 6390 ng·h/mL
MM1.S [7]
  Activity: 6.61%
MM1.S [8]
  Activity: 37.33%
[9]
  clearance: 9.42 mL/min/kg
[10]
  remaining at 1 h: 85%
MM1.S [11]
  Activity: 26.42%
NAMALVA
  IC50: 77.7 nM
MM1.S [12]
  Activity: 15.4%
MM1.S [13]
  Activity: 63.4%
[14]
  IC50: 154 nM
MM1.S [15]
  Activity: 52.6%
YT
  IC50: 75.4 nM
[16]
  half-life: 2.32 h
[17]
  IC50: 80.2 nM
MM1.S [18]
  Activity: 11.27%
MM1.S [19]
  Activity: 52.1%
MM1.S [20]
  Activity: 6.94%
[21]
  IC50: 158 nM
MM1.S [22]
  IC50: 24 nM
MM1.S [23]
  viability at 10 µM: 28%
[24]
  remaining at 2 h: 80%
MM1.S [25]
  Activity: 64.7%
[26]
  IC50: 202 nM
MM1.S [27]
  Activity: 48.3%
[28]
  inhibition: Active
MM1.S [29]
  Activity: 27.36%
[30]
  half-life: 2.12 h
H9
  IC50: 101 nM
[31]
  AUC(0-t) at 8 h: 1670 ng·h/mL
MM1.S [32]
  Activity: 6.35%
[33]
  Cmax: 1240 ng/mL
MM1.S [34]
  Activity: 36.4%
